Results published in patent publication US4478826A, “Renin inhibitory peptides” (Merck & Co., Inc., priority 1982, dated 1984).
Square brackets hold non-standard residues; d marks the D form. Peptide text beside a SMILES is read from it. * marks the point of attachment. Sta = CC(C)C[C@H](N)[C@@H](O)CC(=O)O; Isobutyryl = CC(C)C(=O)*

Target: T1, human renin (Homo sapiens, UniProt P00797)
T1 construct: Human plasma (lyophilized) was used as the source of human substrate and human renin; from tissue; host or cells: human plasma (lyophilized)
T1 sequence (P00797 67-406): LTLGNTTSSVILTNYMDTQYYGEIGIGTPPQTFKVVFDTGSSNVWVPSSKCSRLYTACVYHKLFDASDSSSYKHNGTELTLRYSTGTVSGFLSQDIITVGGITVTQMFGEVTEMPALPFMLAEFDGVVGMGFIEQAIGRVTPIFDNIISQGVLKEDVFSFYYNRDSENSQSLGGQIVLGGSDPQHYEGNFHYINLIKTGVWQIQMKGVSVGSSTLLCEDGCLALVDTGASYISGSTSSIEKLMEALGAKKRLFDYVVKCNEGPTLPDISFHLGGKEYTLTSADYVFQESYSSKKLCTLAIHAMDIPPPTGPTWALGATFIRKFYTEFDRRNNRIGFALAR
Assay: Human renin assay (radioimmunoassay of angiotensin I, human plasma)
Type: biochemical
Conditions: human plasma (lyophilized) as source of human substrate and human renin; read-out: I50 (M) Human renin
Text: This method employs a radioimmunoassay technique to measure the amount of angiotensin I product of renin cleavage of its substrate. Human plasma (lyophilized) was used as the source of human substrate and human renin. I50 values were obtained by plotting data at several inhibitor concentrations.

In the case of `CC(C)C[C@H](NC(=O)[C@H](Cc1c[nH]cn1)NC(=O)[C@H](Cc1ccccc1)NC(=O)[C@@H]1CCCN1C(=O)[C@H](Cc1c[nH]cn1)NC(=O)C(C)C)[C@@H](O)CC(=O)N[C@@H](C)C(=O)N[C@@H](Cc1ccccc1)C(N)=O` [IBU--His--Pro--Phe--His--Sta--Ala--Phe--NH2] (Isobutyryl-HPFH[Sta]AF-NH2), the IC50 was 4.2e-08 M.
